# Laboratory results: patent US12410448B2, “Nanoparticle compositions containing sugar functionalized nucleic acid carriers” (TIBA Biotech LLC, priority 2021, dated 2025)
# How the values were obtained:
# [1] = Encapsulation efficiency by Ribogreen assay; type: physicochemical; details: nanoparticle composition with SEAP mRNA, formulated at pH 5; dendron:DOPE:cholesterol:DMG-PEG2k 1:0.6:2.88:0.1
# Excerpt: As used herein, “encapsulated” can refer to a nanoparticle that provides an active agent or therapeutic agent with full encapsulation, partial encapsulation, or both. In an embodiment, the therapeutic agent is a nucleic acid (as a non-limiting example, a messenger RNA), In a preferred embodiment, the nucleic acid is fully encapsulated in the nanoparticle. In the context of nucleic acid therapeutic agents, full encapsulation may be determined by a Ribogreen® assay. RiboGreen® is an ultra-sensitive fluorescent nucleic acid stain for quantitating oligonucleotides and single-stranded DNA or RNA in solution (available from Thermo Fisher Scientific-US).
# Nanoparticles containing the deoxy sugar-modified polyesteramine dendron (e.g PE Dendron_G2-2 deoxyGlucose-A1-Ricinoleic):DOPE:cholesterol:DMG-PEG2k at molar ratios of 1:0.6:2.88:0.1 were formulated using NanoAssembir Benchtop (Precision NanoSystems Inc, Vancouver, BC, Canada)). RNA was diluted with DNase/RNase-Free, endotoxin free distilled water and sterile citrate buffer to a final desired pH. […] Encapsulation efficiency was measured to be 95% for the nanoparticle composition containing PE Dendron_G2-2 deoxyGlucose-A1-Ricinoleic and SEAP mRNA (formulated at pH 5) using Ribogreen® assay (Geall et al. 10.1073/pnas.1209367109 which is incorporated herein by reference as if fully set forth). […]
# [2] = Hydrodynamic size measurement by dynamic light scattering (DLS); type: physicochemical; details: nanoparticle composition with SEAP mRNA
# BHK cells = experiment: In vitro SEAP production; type: cell-based
# Experimental: To test the ability of the nanoparticles formulated with different deoxy sugar based dendrons to express SEAP in vitro, BHK cells were treated with nanoparticles. Each well of a 12 well dish of BHKs was treated with 20 μL (approximately 1 μg) of each formulation product diluted into a final volume of 500 μL with a 1:1 Optimem:PBS mix. The nontreated wells had 500 μL of 50/50 PBS/OptiMEM. Twenty four hours post-treatment or transfection, conditioned media from each culture was collected. The amount of SEAP was quantified using the Invitrogen NovaBright™ Phospha-Light™ EXP Assay kits for SEAP detection according to the manufacturer's protocol. The amount of SEAP in the media samples are reported in Arbitrary Units (A.U.) as measured in a BioTek Synergy HTX microplate reader. Error bars are ±S.E.M. Referring to FIG. 4a, it was observed that the SEAP amount was higher with the PE Dendron_G2-2 deoxyGlucose-A1-Ricinoleic than the other regioisomers: PE Dendron_G2-1 deoxyGlucose-A1-Ricinoleic and PE Dendron_G2-6 deoxyGlucose-A1-Ricinoleic. […]
# SEAP expression = experiment: In vivo SEAP production, deoxy sugar dendrons; set-up: species or system mice; details: FIG. 4 legend; SEAP mRNA nanoparticles
# Experimental: To test formulations of different monosaccharides based dendrons, the secreted embryonic alkaline phosphatase SEAP reporter system was used. For in vivo tests, mice were injected with nanoparticles at a dose of 5 ug of SEAP mRNA, and 16 hrs later, serum was collected from the mice. The amount of […] using the Invitrogen NovaBright™ Phospha-Light™ EXP Assay kits for SEAP detection according to the manufacturer's protocol. The amount of SEAP in the mouse serum samples are reported in Arbitrary Units (A.U.) as measured in a BioTek Synergy HTX microplate reader. Error bars are±S.E.M. Referring to FIG. 4b, it was observed that the SEAP amount was higher with the PE Dendron_G2-1 deoxyGlucose-A1-Ricinoleic than the other regioisomers: PE Dendron_G2-2 deoxyGlucose-A1-Ricinoleic and PE Dendron_G2-6 deoxyGlucose-A1-Ricinoleic. Referring to FIG. 5b, it was also observed that the SEAP amount was higher with the PE Dendron_G2-2 deoxyGlucose-A5-Ricinoleic than PE Dendron_G2-2 deoxyGlucose-A1-Ricinoleic indicating pKa of the ionizable delivery molecules influences the ability of the nanoparticles to deliver functionally active RNA.
# SARS-CoV-2 Spike protein = experiment: COVID-19 Spike trimer direct serum ELISA after vaccination; type: in vivo
structure (smiles),measurement,setting,value
CCCCCC[C@H](O)C/C=C\CCCCCCCC(=O)NCCCN(C)CCCNC(=O)OCC(C)(COC(=O)NCCCN(C)CCCNC(=O)CCCCCCC/C=C\C[C@@H](O)CCCCCC)C(=O)OCC(C)(COC(=O)C(C)(COC(=O)NCCCN(C)CCCNC(=O)CCCCCCC/C=C\C[C@@H](O)CCCCCC)COC(=O)NCCCN(C)CCCNC(=O)CCCCCCC/C=C\C[C@@H](O)CCCCCC)C(=O)OCc1cn([C@H]2C(O)O[C@H](CO)[C@@H](O)[C@@H]2O)nn1 (some centres unmarked),Encapsulation efficiency,[1],95%
same,"Nanoparticle size at strongest intensity (Z average, DLS)",[2],113.3 nm·days
same,Polydispersity index of size distribution,[2]; single peak,low
same,SEAP amount in conditioned media,"BHK cells; FIG. 4a, BHK cells, 24 h, about 1 μg, compared with regioisomers 1 deoxyGlucose-A1 and 6 deoxyGlucose-A1",higher
same,SEAP protein production in vitro,"BHK cells; FIG. 4 legend, SEAP mRNA nanoparticles",resulted in SEAP protein production
same,SEAP protein production in vivo,SEAP expression,resulted in SEAP protein production
same,Immunogenicity upon IM administration (anti-Spike IgG titer),SARS-CoV-2 Spike protein; compared with Dlin-MC3-DMA control,superior
same,Endpoint dilution titer of serum anti-Spike IgG,SARS-CoV-2 Spike protein; compared with PE Dendron_G2-2 deoxyGlucose-A5-Ricinoleic,higher
